The values that follow come from ChEMBL document CHEMBL5465560, “Selectivity Literature for EUbOPEN Chemogenomic Library” (2024).

The target of test [1] is Serine/threonine-protein kinase SIK1 (Homo sapiens) (UniProt P57059). Particulars: at 10 µM.
Test [2] has as its target Mitogen-activated protein kinase kinase kinase kinase 1 (Homo sapiens) (UniProt Q92918). Nature of the test: Selectivity interaction (KinomeScan (DiscoverX)) EUB0000666a MAP4K1. The settings on record: at 10 µM.
In test [3] the target is T1, Rhodopsin kinase GRK1 (Homo sapiens) (UniProt Q15835).
T1 sequence (whole entry): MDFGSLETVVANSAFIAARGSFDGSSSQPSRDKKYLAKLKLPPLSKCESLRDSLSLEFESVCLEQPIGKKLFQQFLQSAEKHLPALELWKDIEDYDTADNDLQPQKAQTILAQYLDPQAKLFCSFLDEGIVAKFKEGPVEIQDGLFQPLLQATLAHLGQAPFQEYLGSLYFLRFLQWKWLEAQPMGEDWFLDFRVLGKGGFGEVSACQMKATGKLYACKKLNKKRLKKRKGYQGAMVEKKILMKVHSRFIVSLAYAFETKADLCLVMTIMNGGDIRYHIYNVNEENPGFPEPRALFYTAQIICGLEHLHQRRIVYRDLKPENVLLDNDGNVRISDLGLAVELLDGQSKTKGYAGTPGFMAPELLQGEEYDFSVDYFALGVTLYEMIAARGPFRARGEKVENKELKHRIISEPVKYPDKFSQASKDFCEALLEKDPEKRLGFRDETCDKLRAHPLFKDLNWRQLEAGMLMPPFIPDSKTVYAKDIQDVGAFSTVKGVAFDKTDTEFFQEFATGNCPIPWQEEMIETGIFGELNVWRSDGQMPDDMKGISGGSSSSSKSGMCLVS
Description: Selectivity interaction (KinomeScan (DiscoverX)) EUB0000229b GRK1. The settings on record: at 10 µM.

Test [4] concerns the target Receptor-type tyrosine-protein kinase FLT3 (Homo sapiens) (UniProt P36888). Nature of the test: Selectivity interaction (KinaseProfiler screening (Millipore)) EUB0000601a FLT3. Particulars: at 3 µM.
Test [5] concerns the target RAC-beta serine/threonine-protein kinase (Homo sapiens) (UniProt P31751). Nature of the test: Selectivity interaction (ActivX KiNativ screen (ex vivo kinase selectivity in human PBMCs)) EUB0001619a AKT2. Particulars: PBMC, at 1 µM. It is filed as cell-based.
Test [6] concerns the target Serine/threonine-protein kinase PRP4 homolog (Homo sapiens) (UniProt Q13523). Nature of the test: Selectivity interaction (ActivX KiNativ screen (kinase selectivity in THP-1 cell lysates)) EUB0000639a PRPF4. It counts as subcellular. The settings on record: lysate.
The target of test [7] is T2, Ribosomal protein S6 kinase delta-1 (Homo sapiens) (UniProt Q96S38).
T2 sequence (whole entry): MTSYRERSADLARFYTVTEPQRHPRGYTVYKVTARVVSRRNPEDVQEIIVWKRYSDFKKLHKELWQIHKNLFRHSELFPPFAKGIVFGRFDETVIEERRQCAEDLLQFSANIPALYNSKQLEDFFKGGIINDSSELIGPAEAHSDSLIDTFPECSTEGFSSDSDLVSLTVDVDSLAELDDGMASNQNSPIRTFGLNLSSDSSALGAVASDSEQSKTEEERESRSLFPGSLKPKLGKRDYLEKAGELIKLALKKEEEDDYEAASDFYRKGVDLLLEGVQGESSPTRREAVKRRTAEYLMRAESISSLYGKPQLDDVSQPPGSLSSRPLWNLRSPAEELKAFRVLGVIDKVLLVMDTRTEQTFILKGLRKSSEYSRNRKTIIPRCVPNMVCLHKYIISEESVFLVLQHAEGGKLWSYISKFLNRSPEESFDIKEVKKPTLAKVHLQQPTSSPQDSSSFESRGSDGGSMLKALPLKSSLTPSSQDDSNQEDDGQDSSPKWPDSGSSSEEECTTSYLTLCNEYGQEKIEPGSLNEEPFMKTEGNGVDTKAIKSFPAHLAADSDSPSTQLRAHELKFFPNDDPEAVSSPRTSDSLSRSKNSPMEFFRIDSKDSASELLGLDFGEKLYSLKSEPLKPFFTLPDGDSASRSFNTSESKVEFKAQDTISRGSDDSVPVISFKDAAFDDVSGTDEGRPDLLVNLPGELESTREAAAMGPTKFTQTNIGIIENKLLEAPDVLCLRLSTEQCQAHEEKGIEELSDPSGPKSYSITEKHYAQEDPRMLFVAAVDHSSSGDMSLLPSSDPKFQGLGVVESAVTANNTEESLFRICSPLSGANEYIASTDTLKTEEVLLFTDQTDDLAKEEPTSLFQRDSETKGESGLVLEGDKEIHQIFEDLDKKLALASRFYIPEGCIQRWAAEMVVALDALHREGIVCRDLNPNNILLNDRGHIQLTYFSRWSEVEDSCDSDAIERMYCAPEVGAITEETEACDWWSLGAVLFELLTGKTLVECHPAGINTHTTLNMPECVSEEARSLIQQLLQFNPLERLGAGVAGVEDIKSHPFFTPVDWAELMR
Description: Selectivity interaction (ActivX KiNativ screen (kinase selectivity in THP-1 cell lysates)) EUB0000639a RPS6KC1. It counts as subcellular. The settings on record: lysate.

Test [8] deals with Mitogen-activated protein kinase 4 (Homo sapiens) (UniProt P31152). Nature of the test: Selectivity interaction (KinomeScan (DiscoverX)) EUB0000618a MAPK4. The settings on record: at 10 µM.
Sequence of Mitogen-activated protein kinase 4 (Homo sapiens) (P31152 whole entry): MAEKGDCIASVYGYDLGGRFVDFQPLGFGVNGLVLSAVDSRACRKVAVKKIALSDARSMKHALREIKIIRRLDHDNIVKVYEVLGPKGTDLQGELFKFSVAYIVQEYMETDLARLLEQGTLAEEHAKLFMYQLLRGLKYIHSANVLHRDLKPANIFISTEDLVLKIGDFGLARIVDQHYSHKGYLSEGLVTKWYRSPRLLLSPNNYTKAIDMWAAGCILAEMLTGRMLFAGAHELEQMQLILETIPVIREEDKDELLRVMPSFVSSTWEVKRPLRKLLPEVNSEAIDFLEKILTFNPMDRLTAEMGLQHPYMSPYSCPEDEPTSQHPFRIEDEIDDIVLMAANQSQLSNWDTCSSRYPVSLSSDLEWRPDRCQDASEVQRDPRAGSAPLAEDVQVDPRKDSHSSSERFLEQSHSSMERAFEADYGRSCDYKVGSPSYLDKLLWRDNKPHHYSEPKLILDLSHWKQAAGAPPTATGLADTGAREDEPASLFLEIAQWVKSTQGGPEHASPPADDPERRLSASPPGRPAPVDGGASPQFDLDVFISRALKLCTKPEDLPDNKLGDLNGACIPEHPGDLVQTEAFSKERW
Test [9] concerns the target Protein-tyrosine kinase 6 (Homo sapiens, UniProt Q13882). Description: Selectivity interaction (Upstate Kinase Profiler service (Millipore)) EUB0000056c PTK6. Particulars: at 1 µM.
In test [10] the target is T3, Atypical kinase COQ8B, mitochondrial (Homo sapiens) (UniProt Q96D53).
T3 sequence (whole entry): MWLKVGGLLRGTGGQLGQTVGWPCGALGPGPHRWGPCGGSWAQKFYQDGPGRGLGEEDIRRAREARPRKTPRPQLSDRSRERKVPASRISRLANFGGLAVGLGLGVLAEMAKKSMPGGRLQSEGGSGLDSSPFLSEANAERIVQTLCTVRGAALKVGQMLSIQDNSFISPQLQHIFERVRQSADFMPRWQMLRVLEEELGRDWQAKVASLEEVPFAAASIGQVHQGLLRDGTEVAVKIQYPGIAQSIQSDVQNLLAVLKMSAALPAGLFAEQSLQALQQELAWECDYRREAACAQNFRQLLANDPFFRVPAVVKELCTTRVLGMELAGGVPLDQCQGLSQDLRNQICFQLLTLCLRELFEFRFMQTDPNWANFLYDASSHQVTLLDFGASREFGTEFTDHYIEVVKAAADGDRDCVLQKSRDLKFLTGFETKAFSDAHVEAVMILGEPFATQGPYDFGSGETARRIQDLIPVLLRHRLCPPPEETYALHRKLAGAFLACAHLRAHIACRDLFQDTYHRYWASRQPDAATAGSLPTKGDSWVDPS
Nature of the test: Selectivity interaction (KinomeScan (DiscoverX)) EUB0000595a ADCK4. The settings on record: at 10 µM.

Sequence of Serine/threonine-protein kinase PRP4 homolog (Homo sapiens) (Q13523 whole entry): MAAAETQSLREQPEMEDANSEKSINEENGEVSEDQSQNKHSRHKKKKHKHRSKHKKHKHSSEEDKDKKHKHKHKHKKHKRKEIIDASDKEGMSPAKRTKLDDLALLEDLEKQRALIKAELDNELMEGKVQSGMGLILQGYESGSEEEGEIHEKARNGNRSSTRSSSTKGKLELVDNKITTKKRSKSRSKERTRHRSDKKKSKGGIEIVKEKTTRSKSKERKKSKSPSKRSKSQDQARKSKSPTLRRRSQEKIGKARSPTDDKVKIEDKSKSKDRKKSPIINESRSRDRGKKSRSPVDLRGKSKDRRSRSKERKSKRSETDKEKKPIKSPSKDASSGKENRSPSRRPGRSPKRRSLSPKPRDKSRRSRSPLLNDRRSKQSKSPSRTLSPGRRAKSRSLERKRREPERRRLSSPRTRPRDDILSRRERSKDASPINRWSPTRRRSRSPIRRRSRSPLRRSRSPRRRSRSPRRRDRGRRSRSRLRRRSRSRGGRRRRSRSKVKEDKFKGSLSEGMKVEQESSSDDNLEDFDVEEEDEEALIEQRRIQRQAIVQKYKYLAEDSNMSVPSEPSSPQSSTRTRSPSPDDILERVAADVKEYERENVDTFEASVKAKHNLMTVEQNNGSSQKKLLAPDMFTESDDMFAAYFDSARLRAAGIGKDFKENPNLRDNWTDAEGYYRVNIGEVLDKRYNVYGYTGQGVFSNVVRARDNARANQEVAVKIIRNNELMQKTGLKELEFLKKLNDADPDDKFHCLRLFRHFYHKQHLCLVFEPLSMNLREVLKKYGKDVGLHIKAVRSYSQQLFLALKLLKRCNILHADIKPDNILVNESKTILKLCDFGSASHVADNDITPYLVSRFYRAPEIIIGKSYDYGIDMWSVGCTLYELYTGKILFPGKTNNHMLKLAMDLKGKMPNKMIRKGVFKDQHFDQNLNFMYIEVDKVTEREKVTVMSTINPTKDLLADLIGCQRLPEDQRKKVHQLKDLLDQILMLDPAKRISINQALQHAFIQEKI
Sequence of Protein-tyrosine kinase 6 (Q13882 whole entry, looked up): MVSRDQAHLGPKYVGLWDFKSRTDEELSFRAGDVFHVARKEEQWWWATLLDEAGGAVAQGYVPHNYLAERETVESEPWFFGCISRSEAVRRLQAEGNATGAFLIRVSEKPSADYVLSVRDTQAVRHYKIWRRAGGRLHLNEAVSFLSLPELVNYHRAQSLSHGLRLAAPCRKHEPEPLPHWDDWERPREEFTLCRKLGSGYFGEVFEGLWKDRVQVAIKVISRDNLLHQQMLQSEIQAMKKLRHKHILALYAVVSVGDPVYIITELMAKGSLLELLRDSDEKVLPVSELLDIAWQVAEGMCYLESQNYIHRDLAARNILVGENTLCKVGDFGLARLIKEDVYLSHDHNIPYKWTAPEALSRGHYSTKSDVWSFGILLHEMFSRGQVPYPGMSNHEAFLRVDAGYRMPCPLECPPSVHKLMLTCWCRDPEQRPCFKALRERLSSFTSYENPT
Sequence of RAC-beta serine/threonine-protein kinase (Homo sapiens) (P31751 whole entry): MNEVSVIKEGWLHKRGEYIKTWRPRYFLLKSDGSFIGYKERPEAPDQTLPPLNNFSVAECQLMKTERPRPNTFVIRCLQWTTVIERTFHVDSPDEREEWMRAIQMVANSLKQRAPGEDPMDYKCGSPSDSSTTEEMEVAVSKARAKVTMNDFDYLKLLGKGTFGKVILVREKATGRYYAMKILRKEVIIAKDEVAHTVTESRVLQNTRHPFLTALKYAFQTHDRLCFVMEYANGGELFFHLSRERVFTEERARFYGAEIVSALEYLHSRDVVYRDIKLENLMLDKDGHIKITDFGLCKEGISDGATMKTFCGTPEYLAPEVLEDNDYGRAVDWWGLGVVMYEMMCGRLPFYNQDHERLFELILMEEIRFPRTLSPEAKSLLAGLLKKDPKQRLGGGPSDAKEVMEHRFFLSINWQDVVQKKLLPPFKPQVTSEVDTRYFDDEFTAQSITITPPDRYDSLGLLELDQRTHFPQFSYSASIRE
Sequence of Receptor-type tyrosine-protein kinase FLT3 (Homo sapiens) (P36888 whole entry): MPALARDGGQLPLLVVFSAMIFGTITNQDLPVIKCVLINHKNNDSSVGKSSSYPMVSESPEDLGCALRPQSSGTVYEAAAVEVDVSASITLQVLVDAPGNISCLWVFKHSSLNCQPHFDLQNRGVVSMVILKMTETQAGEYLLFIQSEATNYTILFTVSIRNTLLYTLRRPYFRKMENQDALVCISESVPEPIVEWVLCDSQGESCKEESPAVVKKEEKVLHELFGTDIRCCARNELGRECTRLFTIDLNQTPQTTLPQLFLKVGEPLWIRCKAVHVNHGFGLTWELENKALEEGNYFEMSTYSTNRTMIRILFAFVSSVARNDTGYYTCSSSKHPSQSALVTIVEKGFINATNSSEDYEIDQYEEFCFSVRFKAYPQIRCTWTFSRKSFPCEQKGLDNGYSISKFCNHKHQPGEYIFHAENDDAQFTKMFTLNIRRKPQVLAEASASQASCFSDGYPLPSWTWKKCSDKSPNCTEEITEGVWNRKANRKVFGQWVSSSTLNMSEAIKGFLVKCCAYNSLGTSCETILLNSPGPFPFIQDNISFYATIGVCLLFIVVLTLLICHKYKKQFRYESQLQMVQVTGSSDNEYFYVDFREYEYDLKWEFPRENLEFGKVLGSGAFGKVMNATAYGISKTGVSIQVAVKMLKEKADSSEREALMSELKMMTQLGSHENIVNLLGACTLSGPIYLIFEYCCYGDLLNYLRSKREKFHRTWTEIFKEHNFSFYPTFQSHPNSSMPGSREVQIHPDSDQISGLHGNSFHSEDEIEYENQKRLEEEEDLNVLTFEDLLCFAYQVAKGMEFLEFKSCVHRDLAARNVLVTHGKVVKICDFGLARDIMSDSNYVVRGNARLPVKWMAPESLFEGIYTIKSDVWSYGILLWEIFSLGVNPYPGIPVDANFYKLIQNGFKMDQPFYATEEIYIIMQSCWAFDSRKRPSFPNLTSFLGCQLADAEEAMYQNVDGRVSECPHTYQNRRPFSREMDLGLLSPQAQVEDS
Sequence of Serine/threonine-protein kinase SIK1 (Homo sapiens) (P57059 whole entry): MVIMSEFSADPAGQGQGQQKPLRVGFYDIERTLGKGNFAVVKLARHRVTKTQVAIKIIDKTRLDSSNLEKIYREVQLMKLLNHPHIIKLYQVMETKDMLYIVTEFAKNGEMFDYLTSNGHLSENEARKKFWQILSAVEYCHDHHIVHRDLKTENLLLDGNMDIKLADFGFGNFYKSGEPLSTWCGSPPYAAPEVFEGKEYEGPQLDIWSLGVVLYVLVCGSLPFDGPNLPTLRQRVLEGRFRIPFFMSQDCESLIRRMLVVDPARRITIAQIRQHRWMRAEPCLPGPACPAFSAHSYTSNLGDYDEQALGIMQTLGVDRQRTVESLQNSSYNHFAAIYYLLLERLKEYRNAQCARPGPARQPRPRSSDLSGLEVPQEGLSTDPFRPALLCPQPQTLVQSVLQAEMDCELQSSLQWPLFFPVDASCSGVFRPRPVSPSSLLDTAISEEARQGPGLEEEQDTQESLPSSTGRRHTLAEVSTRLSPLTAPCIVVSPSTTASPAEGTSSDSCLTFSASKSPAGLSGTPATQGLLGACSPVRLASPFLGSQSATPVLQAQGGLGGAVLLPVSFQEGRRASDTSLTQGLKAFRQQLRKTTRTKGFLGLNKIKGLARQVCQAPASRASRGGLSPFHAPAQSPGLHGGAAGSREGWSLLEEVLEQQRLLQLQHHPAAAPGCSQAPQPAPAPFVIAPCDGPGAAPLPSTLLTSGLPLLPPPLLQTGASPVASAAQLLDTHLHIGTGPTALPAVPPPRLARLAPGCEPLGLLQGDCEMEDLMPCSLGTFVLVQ

On to `Cc1cc([C@@H](C)Nc2ccccc2C(=O)O)c2nc(N3CCOCC3)cc(=O)n2c1` [AZD-6482], for which the % of control in [1] turned out to be 100%.
Regarding `O=C(NOC[C@H](O)CO)c1ccc(F)c(F)c1Nc1ccc(I)cc1F`, the % of control in [2] is 77%.
As for `COc1cc(N(C)c2ccnc3ccc(C(F)(F)F)cc23)cc(OC)c1OC`, the % binding in test [3] was 68%.
For `CCc1cc(Nc2nccc(-c3c(-c4ccc(OC)c(C(=O)Nc5c(F)cccc5F)c4)nc4ccccn34)n2)c(OC)cc1N1CCC(N2CCN(S(C)(=O)=O)CC2)CC1`, the % of inhibition in [4] stood at 57%.
As to `N#Cc1cccc(-c2c[nH]c3ncnc(N4CCOCC4)c23)c1`, the % of inhibition in test [5] came to 7%.
In the case of `CC[C@@H]1[C@H](F)C(=O)N[C@@H]1COc1nccc2cc(C(N)=O)c(OC)cc12` [ZIMLOVISERTIB], the % of inhibition in test [6] (at 0.01 µM) was -2.3%; in test [6] (at 0.04 µM), 7.1%; in [6] (at 0.2 µM) it was 29.8%; in test [6] (at 1 µM), 73.9%; in test [6] (at 5 µM), 86.3%; in test [7] (at 0.01 µM), 11.8%. Moreover, the % of inhibition in [7] (at 0.04 µM) is -10.9%; in test [7] (at 0.2 µM), -1.8%; in [7] (at 1 µM) it was 9.6%; in [7] (at 5 µM) it was 8.3%.
With `O[C@H]1CC[C@H](Nc2ncc3nc(Nc4c(F)cc(F)cc4F)n([C@H]4CCOC4)c3n2)CC1`, in [8], the % of control was 42%.
As to `Cc1ccc(-c2ccc3c(ccc4sc5c(c43)NC[C@@H](C)NC5=O)n2)cn1`, the % of inhibition in test [9] was 0%.
For the compound `COCC(=O)NC/C=C/c1ccc2ncnc(Nc3ccc(Oc4ccc(C)nc4)c(C)c3)c2c1` [CP-724714], the % of control in test [10] was 98%.
